Measured values taken from ChEMBL document CHEMBL3507680, “University of Dundee, Gates Library screen for HepG2 cell viability”.

Assay: Human HepG2 cell viability assay in 384 well format
Assay type: toxicity, cell-based
Set-up: dose 125 nL, time 70.5 hour; cytotoxicity at 70.5 h: concentration not given beside the values
Details: HepG2 cells, read-out: Inhibition

SMILES	cytotoxicity at 70.5 h
Cc1cnn(CC2CCCN2C(=O)c2nccnc2N)c1 (configuration not stated)	-6.62%
CCC1CCCCN1C(=O)c1ccnc(N(C)C)c1 (configuration not stated)	-0.362%
O=C(NCCCn1ccnc1)NCC(c1ccco1)N1CCCC1 (configuration not stated)	5.06%
CCc1nc(C2CCCN(C(=O)c3cccc(Cl)c3)C2)no1 (configuration not stated)	-1.41%
CCn1cc(NC(=O)NCC(C)(C)N2CCc3ccccc3C2)cn1	13.8%
CCN(Cc1ccccc1)Cc1nc2c(cnn2C)c(=O)[nH]1	17%
O=C(NCc1ccnc(-n2cccn2)c1)C1CC(=O)N(CC2CC2)C1 (configuration not stated)	-8.83%
CN(C)c1cc(C(=O)N2CCCCC2CNS(C)(=O)=O)ccn1 (configuration not stated)	0.448%
O=C(NCCCn1cccn1)NCC(c1ccco1)N1CCCC1 (configuration not stated)	-2.3%
CCC(CNC(=O)Nc1cnn(CC)c1)N1CCc2ccccc2C1 (configuration not stated)	-4.26%
CCN(Cc1nc2c(cnn2C)c(=O)[nH]1)Cc1ccccc1Cl	0.498%
CCN(Cc1cccc(C)c1)Cc1nc2c(cnn2C)c(=O)[nH]1	-2.57%
CCN(Cc1cccc(F)c1)Cc1nc2c(cnn2C)c(=O)[nH]1	14.7%
CCN(Cc1ccc(OC)c(F)c1)Cc1nc2c(cnn2C)c(=O)[nH]1	-1.49%
CS(=O)(=O)N1CCN(CC(O)COc2ccc(Cl)cc2)CC1 (configuration not stated)	0.0303%
NC(=O)Cn1cc(NC(=O)NCCN2CCc3ccccc3C2)cn1	-5.44%
Cc1nc2c(c(C)c1CC(=O)NCc1ccc(F)cc1)c(=O)[nH]n2C	21.3%
O=C(CCc1ccc(Cl)s1)N1CCC(N2CCNC2=O)CC1	-3.74%
Cc1nc2c(c(C)c1CC(=O)NCc1ccco1)c(=O)[nH]n2C	-3.09%
CCc1nc(C2CCCN(C(=O)c3ccc4[nH]cnc4c3)C2)no1 (configuration not stated)	12.5%
CCOC1CCN(C(=O)NCCc2ccn(-c3ccccc3)n2)CC1	-2.77%
CCc1nc(C2CCCN(C(=O)c3ccncc3)C2)no1 (configuration not stated)	-1.21%
Cc1cnn(CC2CCCCN2C(=O)c2cccc(C(N)=O)c2)c1 (configuration not stated)	-1.63%
Cc1cnn(CC2CCCCN2C(=O)c2ccc3[nH]c(=O)[nH]c3c2)c1 (configuration not stated)	-0.746%

SMILES	cytotoxicity at 70.5 h
CC(=O)Nc1nc(C(=O)N2CCCC2Cn2cccn2)cs1 (configuration not stated)	-0.875%
Cc1cnn(CC2CCCCN2C(=O)c2ccc(CN(C)C)cc2)c1 (configuration not stated)	-8.06%
Cc1cnn(CC2CCCCN2C(=O)c2ccc(N(C)C)nc2)c1 (configuration not stated)	0.883%
CC(=O)Nc1nc(C(=O)N2CCCCC2Cn2cccn2)cs1 (configuration not stated)	-0.594%
CCn1c(C)nnc1CN(C)C1CCN(CCOc2ccccc2)C1 (configuration not stated)	29.3%
Cc1nc(C)n(CC2CCCN(CCC(=O)NC3CCCC3)C2)n1 (configuration not stated)	24.8%
CC(=O)N(Cc1ncc(C)o1)C1CCN(Cc2ccon2)C1 (configuration not stated)	22.2%
CC(=O)N(Cc1noc(C)n1)C1CCN(Cc2ncc(C(C)C)o2)C1 (configuration not stated)	51.4%
CC(=O)N(Cc1ncc(C)o1)C1CCN(Cc2csc(C)n2)C1 (configuration not stated)	-1.47%
CCn1cnnc1CNC(=O)N1CCN(CC(C)C)CC1	-1.52%
CC(=O)N(Cc1ncc(C)o1)C1CCN(Cc2cc(C)on2)C1 (configuration not stated)	-4.42%
Cc1cnn(CC2CCCN2C(=O)CCc2ccncc2)c1 (configuration not stated)	-1.24%
CCn1c(C)nnc1CN(C)C1CCN(CCS(=O)(=O)CC)C1 (configuration not stated)	-5.35%
O=C(CN(Cc1ccco1)C1CC1)N1CCCCCC1	-1.39%
CS(=O)(=O)NC1CCCN(C(=O)NCc2ccccc2Cl)C1 (configuration not stated)	-2.53%
Cc1ccc(CNC(=O)N2CCCC(NS(C)(=O)=O)C2)cc1 (configuration not stated)	2.89%
CCn1cnnc1CNC(=O)N1CCC(OCc2ccccc2)CC1	-2.7%
CCn1cnnc1CNC(=O)N1CCN(CCc2ccccc2)CC1	-2.4%
O=C(NCC(c1ccc(F)cc1)N1CCOCC1)Nc1cn[nH]c1 (configuration not stated)	18.9%
CC(=O)NC1CCCN(C(=O)NCc2cccnc2)C1 (configuration not stated)	0.9%
Cc1cccc(C(=O)N(C)C2CCN(c3ccccn3)CC2)c1C	2.5%
CN(C(=O)c1cccc(Cl)c1)C1CCN(c2ccccn2)CC1	2.1%
CCn1cnnc1CNC(=O)N1CCN(Cc2ccco2)CC1	1.5%
CCOc1ncccc1C(=O)N(C)C1CCN(c2ccccn2)CC1	2.78%

SMILES	cytotoxicity at 70.5 h
COc1ccccc1C(=O)N(C)C1CCN(c2ccccn2)CC1	-0.00253%
CCc1nc(C2CCCN(C(=O)NC(C)C)C2)no1 (configuration not stated)	21.2%
N#Cc1ccsc1C(=O)N1CCCN(Cc2cscn2)CC1	5.01%
Cc1nc(C)n(CC2CN(CCC(=O)N3CCCCC3)CCO2)n1 (configuration not stated)	-6.29%
Cc1cn2c(n1)CCC(NC(=O)c1cncnc1C)C2 (configuration not stated)	-5.83%
CC(C)c1n[nH]c(C2CN(C(=O)c3ccnc(C4CC4)n3)CCO2)n1 (configuration not stated)	16.3%
CCc1nncn1CCNC(=O)N1CCN(Cc2ccccc2)CC1	3.82%
CCn1cnnc1CNC(=O)N1CCN(Cc2ccsc2)CC1	2.69%
CCn1cc(CN2CCCN(C(=O)c3ccc(C)nc3)CC2)cn1	-6.02%
Cc1ocnc1C(=O)N1CCCN(Cc2cscn2)CC1	21.9%
Cc1nc(CN(Cc2ccc3c(c2)OCCO3)C2CCCC2)no1	-7.64%
Cc1nc(CN(C)C2CCN(Cc3ccc(C(N)=O)cc3)C2)no1 (configuration not stated)	-11.2%
Cc1nn(C)c(N2CCOCC2)c1CNCc1ccccc1CO	-10.1%
CCn1cc(CN2CCCN(C(=O)c3cc(C)no3)CC2)cn1	-2.69%
CC(C)c1nnc(CNC2CCCN(Cc3noc(C4CC4)n3)C2)o1 (configuration not stated)	-5.67%
COCCc1noc(CNCC2CCCN2c2cccnn2)n1 (configuration not stated)	2.33%
CC(C)COC(C)C(=O)NCc1ccc(N(C)C)cc1 (configuration not stated)	7.68%
c1cnn(CC2CN(CCc3ccncc3)CCO2)c1 (configuration not stated)	-4.36%
Cn1cnnc1C1CCCN(C(=O)c2ccccc2Cl)C1 (configuration not stated)	-4.06%
COc1ccc(Br)c(C(=O)NCCNc2ccc(C(F)(F)F)cn2)c1	-13.7%
COc1ccc(C(CNC(=O)Nc2cn[nH]c2)N2CCOCC2)cc1 (configuration not stated)	-4.89%
CC(C)COC(C)C(=O)NCc1ccc(OC(C)C)nc1 (configuration not stated)	-3.57%
COc1ccccc1CNC(=O)N1CCCC(NS(C)(=O)=O)C1 (configuration not stated)	15.3%
COc1ccc(CNCc2c(C)nn(C)c2N2CCOCC2)cc1	-3.63%

SMILES	cytotoxicity at 70.5 h
Cc1nc2c(c(C)c1CC(=O)Nc1cccc(C#N)c1)c(=O)[nH]n2C	15.2%
CN(C(=O)c1cc(Cl)c[nH]1)C1CCN(c2ccccn2)CC1	8.18%
O=C(NCCS(=O)(=O)N1CCc2ccccc21)c1c(O)cc(F)cc1F	-2.02%
Cc1cn2c(n1)CCC(NC(=O)c1cc(C(C)C)no1)C2 (configuration not stated)	-7.72%
Cc1n[nH]c(C2CN(C(=O)c3cc(C4CC4)[nH]n3)CCO2)n1 (configuration not stated)	4.51%
Cc1n[nH]c(C2CN(C(=O)c3cnc[nH]3)CCO2)n1 (configuration not stated)	-11.1%
Cc1nc(CNCC2CCCN2c2cccnn2)no1 (configuration not stated)	-1.22%
COc1ccc(CCC(=O)N2CCCC2Cn2cc(C)cn2)cc1F (configuration not stated)	-6.64%
Fc1ccc(CN2CCCN(Cc3cscn3)CC2)cc1	23.4%
CCc1n[nH]c(C2CN(Cc3nccn3CC)CCO2)n1 (configuration not stated)	22.2%
Cn1cnnc1C1CCCN(C(=O)Cc2ccc3c(c2)OCCO3)C1 (configuration not stated)	0.026%
O=C(CCNC(=O)c1ccoc1)Nc1c(F)cccc1F	-1.23%
CCOc1ncccc1C(=O)N(C)Cc1ncc(C)c(OC)c1C	-2.95%
c1ccc(CN2CCN(Cc3cscn3)CC2)cc1	-6.7%
Cc1ccccc1CN1CCN(CC(=O)Nc2cccnc2)CC1	5.17%
O=C(CCCOc1ccc(F)cc1)N1CCCC(n2cccn2)C1 (configuration not stated)	0.781%
O=C(CN1CCOC(Cn2cccn2)C1)Nc1nncs1 (configuration not stated)	34.7%
Cc1nc(CN2CCN(CC(=O)Nc3c(C)cccc3C)CC2)no1	-5.01%
CC(C)c1nccn1C1CCCN(C(=O)c2ccc3[nH]nnc3c2)C1 (configuration not stated)	30.1%
O=C(c1cccc2c1OCO2)N1CCCC1Cn1cccn1 (configuration not stated)	-8.17%
CC(C)c1nnc2n1CCN(CC(=O)Nc1nncs1)C2	-6.91%
CC(C)c1nnc2n1CCN(C(=O)c1ccc(-n3cnnc3)cc1)C2	27.3%
O=C(c1cccnc1N1CCOCC1)N1CCCC1Cn1cccn1 (configuration not stated)	-8.41%
Cc1n[nH]c(C)c1NC(=O)CN1CCOC(Cn2cccn2)C1 (configuration not stated)	0.504%

SMILES	cytotoxicity at 70.5 h
Cc1nc(CN2CCCC(N(C)Cc3cscn3)C2)no1 (configuration not stated)	4.42%
COCCc1noc(CNC2CCc3nc(C(C)C)nn3C2)n1 (configuration not stated)	-5%
Cc1nc(C)n(C2CCCN(C(=O)c3ccc(N(C)C)nn3)C2)n1 (configuration not stated)	-3.22%
CC(C)c1nc(CN2CCN(CC3CCCO3)CC2)cs1 (configuration not stated)	-2.13%
CCn1cnnc1C1CCN(C(=O)C(OC)c2ccccc2)CC1 (configuration not stated)	-0.299%
Cn1cnnc1C1CCCN(C(=O)NCCOc2ccccc2)C1 (configuration not stated)	40.2%
CC(=O)Nc1nc(C(=O)NC(C)c2ccc(F)cc2)cs1 (configuration not stated)	-13.6%
CC(OCC(F)(F)F)C(=O)NCc1ccc(-n2cncn2)nc1 (configuration not stated)	-12.1%
CNS(=O)(=O)c1ccc(CNC(=O)NCC2CCCO2)cc1 (configuration not stated)	-20.2%
CCN(Cc1ccc2c(c1)OCCO2)C(=O)NCc1nc(C)cs1	-27.9%
Cc1nnc(N2CCC(CNC(=O)OC(C)(C)C)CC2)c(C#N)c1C	1.28%
Cc1nc(CN2CCCN(C(=O)c3ccccn3)CC2)oc1C	-10.4%
Cc1cccc2nc(C(=O)N3CCC(Nc4cccnn4)CC3)cn12	-21.3%
CC(NC(=O)NCc1cccc(N2CCCC2=O)c1)c1ccccc1 (configuration not stated)	-12.2%
O=C(c1cccc2cccnc12)N1CCCN(c2cccnn2)CC1	-10.5%
O=C(c1ccccc1-n1cccn1)N1CCCN(c2cccnn2)CC1	-21.8%
O=C(Nc1cc(F)ccc1OCC1CCCO1)c1ccccn1 (configuration not stated)	-8.61%
Cc1cc(CN2CCOC(CN(C)c3cccnn3)C2)no1 (configuration not stated)	-11.5%
O=C1CCCCN1c1cccc(CNC2CCCC2)c1	-17.9%
O=C(c1cccn2ccnc12)N1CCCN(c2cccnn2)CC1	-20.2%
Cc1ccc(CNC2CCCc3c2cnn3C)s1 (configuration not stated)	-4.42%
